Results: ChEMBL document CHEMBL5584217, “Synthesis, biological activity evaluation and mechanism of action of novel bis-isatin derivatives as potential anti-liver cancer agents” (Bioorg Med Chem Lett, 2024)
Calls of active or inactive are those of the source.

What was measured:
[1] = Toxicity in NCG mouse assessed as pathological change in lung at 15 mg/kg, ip measured after 14 days by H and E staining based analysis; assay type: organism-based; conditions: in vivo, 336 h, time 14 day
[2] = Toxicity in NCG mouse assessed as pathological change in tumor at 15 mg/kg, ip measured after 14 days by H and E staining based analysis; assay type: organism-based; conditions: in vivo, 336 h, time 14 day
[3] = Toxicity in NCG mouse assessed as effect on MCH level at 15 mg/kg, ip measured after 14 days; assay type: organism-based; conditions: in vivo, 336 h, time 14 day
[4] = Toxicity in NCG mouse assessed as pathological change in spleen at 15 mg/kg, ip measured after 14 days by H and E staining based analysis; assay type: organism-based; conditions: in vivo, 336 h, time 14 day
HuH-6 = assay: Antiproliferative activity against human HuH-6 cells assessed as inhibition of cell growth incubated for 48 hrs by CCK-8 method; assay type: functional, cell-based; conditions: HuH-6, 48 h
[5] = Toxicity in NCG mouse assessed as effect on HCT level at 15 mg/kg, ip measured after 14 days; assay type: organism-based; conditions: in vivo, 336 h, time 14 day
HuH-1 [6] = assay: Antiproliferative activity against human HuH-1 cells assessed as inhibition of cell growth incubated for 48 hrs by CCK-8 method; assay type: functional, cell-based; conditions: HuH-1, 48 h
HuH-1 [7] = assay: Antitumor activity against human HuH-1 cells xenografted in NCG mouse model assessed as reduction in tumor size at 15 mg/kg, ip administered every other day for 14 days; assay type: functional, organism-based; conditions: time 14.0 day
MHCC97H = assay: Antiproliferative activity against human MHCC97H cells assessed as inhibition of cell growth incubated for 48 hrs by CCK-8 method; assay type: functional, cell-based
HuH-1 [8] = assay: Antitumor activity against human HuH-1 cells xenografted in NCG mouse model assessed as reduction in tumor weight at 15 mg/kg, ip administered every other day for 14 days; assay type: functional, organism-based; conditions: time 14.0 day
Hepa 1-6 = assay: Antiproliferative activity against mouse Hepa1-6 cells assessed as inhibition of cell growth incubated for 48 hrs by CCK-8 method; assay type: functional, cell-based; conditions: Hepa1-6, 48 h
[9] = Antiproliferative activity against mouse AML12 cells assessed as inhibition of cell growth incubated for 48 hrs by CCK-8 method; assay type: toxicity, cell-based
Huh-7 = assay: Antiproliferative activity against human Huh-7 cells assessed as inhibition of cell growth incubated for 48 hrs by CCK-8 method; assay type: functional, cell-based; conditions: Huh-7, 48 h
[10] = Toxicity in NCG mouse assessed as effect on LDH level at 15 mg/kg, ip measured after 14 days; assay type: organism-based; conditions: in vivo, 336 h, time 14 day
[11] = Toxicity in NCG mouse assessed as effect on ALB level at 15 mg/kg, ip measured after 14 days; assay type: organism-based; conditions: in vivo, 336 h, time 14 day
[12] = Toxicity in NCG mouse assessed as effect on ALT level at 15 mg/kg, ip measured after 14 days; assay type: organism-based; conditions: in vivo, 336 h, time 14 day
[13] = Toxicity in NCG mouse assessed as effect on UREA level at 15 mg/kg, ip measured after 14 days; assay type: organism-based; conditions: in vivo, 336 h, time 14 day
[14] = Toxicity in NCG mouse assessed as effect on MCV level at 15 mg/kg, ip measured after 14 days; assay type: organism-based; conditions: in vivo, 336 h, time 14 day
[15] = Toxicity in NCG mouse assessed as pathological change in kidney at 15 mg/kg, ip measured after 14 days by H and E staining based analysis; assay type: organism-based; conditions: in vivo, 336 h, time 14 day
HuH-1 [16] = assay: Antitumor activity against human HuH-1 cells xenografted in NCG mouse model assessed as increase in tumor cell death at 15 mg/kg, ip administered every other day for 14 days; assay type: functional, organism-based; conditions: time 14.0 day
[17] = Toxicity in NCG mouse assessed as pathological change in heart at 15 mg/kg, ip measured after 14 days by H and E staining based analysis; assay type: organism-based; conditions: in vivo, 336 h, time 14 day
HuH-1 [18] = assay: Antitumor activity against human HuH-1 cells xenografted in NCG mouse model assessed as reduction in tumor cell density at 15 mg/kg, ip administered every other day for 14 days; assay type: functional, organism-based; conditions: time 14.0 day
H22 = assay: Antiproliferative activity against mouse H22 cells assessed as inhibition of cell growth incubated for 48 hrs by CCK-8 method; assay type: functional, cell-based; conditions: H22, 48 h
[19] = Toxicity in NCG mouse assessed as pathological change in liver at 15 mg/kg, ip measured after 14 days by H and E staining based analysis; assay type: organism-based; conditions: in vivo, 336 h, time 14 day
[20] = Toxicity in NCG mouse assessed as effect on AST level at 15 mg/kg, ip measured after 14 days; assay type: organism-based; conditions: in vivo, 336 h, time 14 day
[21] = Toxicity in NCG mouse assessed as effect on RBC level at 15 mg/kg, ip measured after 14 days; assay type: organism-based, Erythrocyte; conditions: in vivo, 336 h, time 14 day
[22] = Toxicity in NCG mouse assessed as effect on HGB level at 15 mg/kg, ip measured after 14 days; assay type: organism-based; conditions: in vivo, 336 h, time 14 day
HepG2 = assay: Antiproliferative activity against human HepG2 cells assessed as inhibition of cell growth incubated for 48 hrs by CCK-8 method; assay type: functional, cell-based; conditions: HepG2, 48 h
HuH-1 [23] = assay: Induction of autophagy in human HuH-1 cells assessed as increase in LC3BII expression by […] based analysis; assay type: functional, cell-based
HuH-1 [24] = assay: Induction of autophagy in human HuH-1 cells assessed as downregulation of P62 expression by […] based analysis; assay type: functional, cell-based
HuH-1 [25] = assay: Induction of autophagy in human HuH-1 cells assessed as increase in LC3BI expression by […] based analysis; assay type: functional, cell-based
HuH-1 [26] = assay: Induction of autophagy in human HuH-1 cells assessed as increase in ATG5 expression by […] based analysis; assay type: functional, cell-based
HuH-1 [27] = assay: Antitumor activity against human HuH-1 cells xenografted in NCG mouse model assessed as reduction in tumor cell density at 20 mg/kg, ip administered every other day for 14 days; assay type: functional, organism-based; conditions: time 14.0 day
HuH-1 [28] = assay: Antitumor activity against human HuH-1 cells xenografted in NCG mouse model assessed as increase in tumor cell death at 20 mg/kg, ip administered every other day for 14 days; assay type: functional, organism-based; conditions: time 14.0 day

COC(=O)[C@H](CCCCNC(=O)CN1C(=O)C(=O)c2cc(Br)ccc21)NC(=O)CN1C(=O)C(=O)c2cc(Br)ccc21
active: Activity (HuH-1 [7]) | Activity (HuH-1 [8]) | Activity (HuH-1 [16]) | Activity (HuH-1 [18])
Non-Toxic: Activity [1] | Activity [2] | Activity [3] | Activity [4] | Activity [5] | Activity [10] | Activity [11] | Activity [12] | Activity [13] | Activity [14] | Activity [15] | Activity [17] | Activity [19] | Activity [20] | Activity [21] | Activity [22]
> 100 µM: IC50 (HuH-6) | IC50 (MHCC97H) | IC50 (Hepa 1-6) | IC50 at 48 h [9] | IC50 (HepG2)
16.9 µM: IC50 (H22)
17.1 µM: IC50 (HuH-1 [6])
8.27 µM: IC50 (Huh-7)

COC(=O)[C@H](CCCCNC(=O)CN1C(=O)C(=O)c2cc(Cl)ccc21)NC(=O)CN1C(=O)C(=O)c2cc(Cl)ccc21
26.4 µM: IC50 (HuH-1 [6])
> 100 µM: IC50 (HuH-6) | IC50 (MHCC97H) | IC50 (Hepa 1-6) | IC50 at 48 h [9] | IC50 (HepG2)
29.9 µM: IC50 (Huh-7)
45.8 µM: IC50 (H22)

COC(=O)[C@H](CCCCNC(=O)CN1C(=O)C(=O)c2cc(F)ccc21)NC(=O)CN1C(=O)C(=O)c2cc(F)ccc21
> 100 µM: IC50 (HuH-6) | IC50 (HuH-1 [6]) | IC50 (MHCC97H) | IC50 (Hepa 1-6) | IC50 at 48 h [9] | IC50 (Huh-7) | IC50 (H22) | IC50 (HepG2)
active: Activity (HuH-1 [23]) | Activity (HuH-1 [24]) | Activity (HuH-1 [25]) | Activity (HuH-1 [26])

COC(=O)[C@H](CCCCNC(=O)CN1C(=O)C(=O)c2cc(C)ccc21)NC(=O)CN1C(=O)C(=O)c2cc(C)ccc21
> 100 µM: IC50 (HuH-6) | IC50 (MHCC97H) | IC50 (Hepa 1-6) | IC50 at 48 h [9] | IC50 (H22) | IC50 (HepG2)
32.9 µM: IC50 (Huh-7)
35.1 µM: IC50 (HuH-1 [6])

CNC(=O)c1cc(Oc2ccc(NC(=O)Nc3ccc(Cl)c(C(F)(F)F)c3)cc2)ccn1 [SORAFENIB]
9.63 µM: IC50 (HuH-1 [6])
14.7 µM: IC50 (Huh-7)
10.7 µM: IC50 (H22)
active: Activity (HuH-1 [27]) | Activity (HuH-1 [28])

COC(=O)[C@H](CCCCNC(=O)CN1C(=O)C(=O)c2cc(OC)ccc21)NC(=O)CN1C(=O)C(=O)c2cc(OC)ccc21
> 100 µM: IC50 (HuH-6) | IC50 (HuH-1 [6]) | IC50 (MHCC97H) | IC50 (Hepa 1-6) | IC50 at 48 h [9] | IC50 (Huh-7) | IC50 (H22) | IC50 (HepG2)

COC(=O)[C@H](CCCCNC(=O)CN1C(=O)C(=O)c2ccccc21)NC(=O)CN1C(=O)C(=O)c2ccccc21
> 100 µM: IC50 (HuH-6) | IC50 (HuH-1 [6]) | IC50 (MHCC97H) | IC50 (Hepa 1-6) | IC50 at 48 h [9] | IC50 (Huh-7) | IC50 (H22) | IC50 (HepG2)
